According to patent US9402875B2, “Amidated dopamine neuron stimulating peptide restoration of mitochondrial activity” (University of Kentucky Research Foundation, priority 2006, dated 2016):
Entries after “also recorded” stand apart in the source; their conditions may differ. Ends that are not written are not given here.

Key:
Format in all cases: in vivo, rat
[1] = test system: normal young male Fischer 344 rats; assay: Striatal microdialysis 28 days after intranigral DNSP-11
Method: Infusion Delivery of DNSP-11 or Vehicle: Isoflurane anesthetized (1.5-2.5%) F344 rats received 5 μl of 6 μg/μL DNSP-11 solution or citrate buffer vehicle solution in a blinded manner. Treatment was delivered to the nigral cell bodies using the same stereotaxic coordinates and protocol for solution delivery as in studies of GDNF.
Reverse Microdialysis: Reverse in vivo microdialysis was accomplished using methods and brain coordinates described by Hebert et al. (1996)J Pharmacol. Exper. Ther. 279:1181-1190. CMA 11 microdialysis probes with a 4.0 mm membrane length and 6 kDa molecular weight cut-off were placed within the rat striatum.
Prior studies with GDNF have shown robust effects on both potassium and amphetamine-evoked release 28 days after a single injection into the rat substantia nigra (Hebert et al. (1997) J. Pharm. Exp. Thera. 282: 760) indicating the functional effects of this trophic factor on dopamine signaling in the normal rat striatum. In the present experiment, 30 μg of DNSP-11 was injected into the right substantia nigra of normal young male Fischer 344 rats. Twenty-eight days after injection, in vivo microdialysis was performed in these animals to investigate dopamine neurochemistry in the ipsilateral striatum. […] Winkler et al. (1996) J. Neurosci. 16: 7206; Hebert et al. (1996) J Pharmacol Exper Ther. 279: 1181-1190 (1996).

[2] = test system: unilateral 6-OHDA-lesioned rats; assay: Neurochemical content of tissue (HPLC-EC); conditions: 5 weeks after infusion
Method: Unilateral 6-OHDA Lesions: The 6-OHDA solution was delivered to two injection sites along the medial forebrain bundle (MFB) using a protocol described by Lundblad et al. (2002) Eur. J. Neurosci. 15:120-132. Five weeks after the unilateral 6-OHDA MFB lesion procedure, animals were grouped based on apomorphine (0.05 mg/kg, s.c.)-induced rotational behaviour: Animals with >300 rotations per 60 minutes were selected. Lesioned animals received 5 vit of either a 20 μg/vd, DNSP-11 solution or citrate buffer vehicle solution in a manner similar to infusion delivery in normal animals.
Neurochemical Content of Tissue: Lesioned animals were euthanized 5 weeks after DNSP-11 or vehicle infusion. The brains were sliced into 1 mm thick sections. […]
The in vitro studies and in vivo measures of the effects of DNSP-11 led to an investigation of the potential neurorestorative properties of DNSP-11 to damaged dopamine neurons in a unilateral rat model of PD. […] At 5 weeks, the substantia nigra and striatum from each rat was analyzed by high performance liquid chromatography coupled with electrochemical detection.
Rats were tested 3-4 weeks after the injection of 6-OHDA using low-dose (0.05 mg/kg, i.p.) apomorphine to induce rotational behavior. […] At 5 weeks, the substantia nigra and striatum from each rat was analyzed by high performance liquid chromatography coupled with electrochemical detection.

[3] = test system: mitochondria of substantia nigra and striatum; assay: Mitochondrial State III respiration 28 days after bilateral intranigral DNSP-11; conditions: 28 days post bilateral intranigral 30 μg
Method: Six five-month-old male F344 rats received bilateral intranigral injections of 30 μg DNSP-11. Six age and sex-matched controls received injections of the same volume of vehicle (citrate buffer). Twenty-eight days after test material administration, the animals were euthanized by CO2 anesthesia and the brain samples rapidly dissected. The striatum and substantia nigra were isolated quickly and carefully using a rat brain matrix for F344 rats.
Mitochondrial respiration was assessed using a miniature Clark-type electrode, in a sealed, thermostatic and continuously stirred chamber. Mitochondria were added to the chamber to yield a final protein concentration of 1 mg/ml. The substrate concentrations were 5.0 mM/2.5 mM for glutamate/malate and pyruvate/malate or 10 mM for succinate+[…] rotenone or α-glycerophosphate. State 3 respiration was initiated by the addition of 150 ηmols ADP. The respiratory control ratio was calculated as respiration in the presence of ADP (state 3)/respiration in absence of ADP (state 4). ADP/0 ratios were determined by dividing the amount of ADP phosphorylated during State III respiration by the amount of oxygen consumed. NAD-linked substrates, e.g. glutamate and pyruvate, utilize complexes I, III, IV in their oxidation, succinate utilizes complexes II, III, IV and α-glycerophosphate ultilizes III, IV. […]

[4] = ipsilateral striatum, 28 days after 30 μg into right substantia nigra

Substance: PPEAPAEDRSL-NH2 [DNSP-11, PPEAPAEDRSL-amide]
- Basal DA ([1]; 28 days after delivery, vehicle 26.0±2.7 nM): 45.8 ± 7.7 nM
- Basal concentrations of HVA ([1]; 28 days after delivery, vehicle 2419±251 nM): 4.516 ± 0.502 µM
- Basal concentrations of DOPAC ([1]; 28 days after delivery, vehicle 3355±338 nM): 6.544 ± 0.836 µM
- resting levels of HVA, increase vs controls [1, 4]: over 100%
- resting levels of dopamine, increase vs controls [1, 4]: over 100%
- DOPAC tissue content, substantia nigra ([2]; vehicle 7.10±1.40 ng/g): 16.48 ± 4.01 ng/g
- DA content, substantia nigra ([2]; vehicle 34.7±6.4 ng/g): 59.1 ± 7.3 ng/g
- State III oxygen consumption / oxidative phosphorylation vs vehicle ([3]; striatum): reached statistical significance; also recorded: increased
- State III oxygen consumption / oxidative phosphorylation vs vehicle ([3]; substantia nigra, n=2): trend towards an increase; also recorded: increased
